Data on three compounds can be found in US12419839B2, “Methods and compositions for targeted delivery of protein fragments” (Signablok, Inc., priority 2009, dated 2025).

Where no end group is shown, it is not given here.

One series deals with A549 xenograft. Briefly: A549 xenograft mouse model of NSCLC. Format: in vivo. The following applies: compared to the vehicle-treated group. From the text:
FIG. 16 presents exemplary data showing that in drug-containing synthetic (recombinant) HDL (SLP, LPC), apolipoprotein can be replaced by synthetic apolipoprotein fragments without compromising the drug antitumor activity in an animal model. Bars, SEM. For statistical analysis, each treatment was compared with the vehicle control using Student's t test. **, P 0.001 to 0.01. Abbreviations: apo, apolipoprotein; HDL, high density lipoproteins; HDL (A-Iox), HDL with oxidized human apo A-I; HDL (PE22ox+PA22ox), HDL with a 1:1 mixture of synthetic peptides PE22ox and PA22ox that correspond to apo A-I helixes 4 and 6, respectively (SEE FIG. 12); dHDL and sHDL, discoidal and spherical HDL, respectively; LPC, lipoprotein/lipopeptide complexes; NSCLC, non-small cell lung cancer; PTX, paclitaxel; SLP, synthetic lipoprotein/lipopeptide particles; TREM-1, triggering receptor expressed on myeloid cells-1.
See, FIGS. 15 and 16. Here, A549 cells were injected subcutaneously into nude mice and randomized into treatment groups (n=10) once tumors reached an average of 200 mm^3. The treatment groups were: i) Vehicle (HDL containing no GF9); ii) paclitaxel (PTX) as a positive control; iii) GF9-dHDL (A-Iox); iv) GF9-sHDL (A-Iox); v) GF9-dHDL(PE22ox+PA22ox); and vi) GF9-sHDL(PE22ox+PA22ox) where each group received intraperitoneal injections twice a week. […]

A further series concerns mice with CIA. The following applies: sHDL-bound MG11 2.5 mg/kg.
The subject of series [1] is GM-CSF, IFNγ, IL-1β, IL-2, IL-6, IL-17, M-CSF and TNFα. Briefly: serum cytokines in mice with CIA. The format is in vivo. The settings on record: serum on day 38; MG11 and MG11-2G 25 mg/kg, sHDL-bound MG11 2.5 mg/kg; vs vehicle.

With `CC(=O)O[C@H]1C(=O)[C@@]2(C)[C@H]([C@H](OC(=O)c3ccccc3)[C@]3(O)C[C@H](OC(=O)[C@H](O)[C@@H](NC(=O)c4ccccc4)c4ccccc4)C(C)=C1C3(C)C)[C@]1(OC(C)=O)CO[C@@H]1C[C@@H]2O` [PTX, paclitaxel], the “post necropsy excised tumors weights” value with A549 xenograft is listed as “significantly lower”.
Take “MWGTPTLGYFG [MG11-2G, free control peptide]”: in the series with mice with CIA (i.p. daily for 14 days from day 24, MG11 and MG11-2G 25 mg/kg, vs vehicle), the “clinical severity of CIA” value is recorded as “no effect”. Further, the serum cytokine release entry in series [1] is recorded as “no effect”.
For MWKTPTLKYFG [free MG11, MWKTPTLKYFG], the body weight result with mice with CIA (i.p. daily for 14 days, MG11 25 mg/kg) is “without affecting body weight”.
